Results published in patent publication US10632125B2, “MTH1 inhibitors for treatment of inflammatory and autoimmune conditions” (THOMAS HELLEDAYS STIFTELSE FÖR MEDICINSK FORSKNING, priority 2014, dated 2020).

tested on: unactivated T-lymphocytes; assay: Cellular assay, unactivated primary T-lymphocytes; type: cell-based, human; settings: not given
Method: (§1) Cellular Assay and IC50 Value Determination
(§2) The T-lymphocytes are treated with an MTH1 inhibitor, positive control or vehicle for 24-96 hrs. Cell viability can be measured by using standard assays, such as for instance a resazurin assay. In some experiments, the cells are stained with Cell Trace Violet at the start of the culture. The dye is diluted as the cells divide and gives a measurement of cell proliferation (see FIG. 1 for an example).

SMILES	effect on unactivated T-lymphocytes (FIG. 1)
Cc1c(Cl)cccc1-c1cc(NCCc2ccc(S(N)(=O)=O)cc2)nc(N)n1 [Example 297, 4-(2-{[2-amino-6-(3-chloro-2-methylphenyl)pyrimidin-4-yl]amino}ethyl)benzene-1-sulfonamide]	unaffected

molecular target: MTH1 (Homo sapiens, UniProt P36639); assay: MTH1 enzymatic assay (malachite green, coupled to pyrophosphatase); type: biochemical; settings: dGTP 100 μM, MTH1 6 nM; 96- or 384-well format; read-out: IC50

SMILES	IC50 [nM]
Cc1c(Cl)cccc1-c1cc(NCCc2ccc(S(N)(=O)=O)cc2)nc(N)n1 [Example 297, 4-(2-{[2-amino-6-(3-chloro-2-methylphenyl)pyrimidin-4-yl]amino}ethyl)benzene-1-sulfonamide]	< 200
Cc1c(Cl)cccc1-c1cc(NCC2CCOCC2)nc(N)n1 [Example 706, 6-(3-chloro-2-methyl-phenyl)-N4-(tetrahydropyran-4-ylmethyl)pyrimidine-2,4-diamine]	< 200
Cc1c(Cl)cccc1-c1cc(NCC2CCCO2)nc(N)n1 (centres unmarked) [Example 707, 6-(3-chloro-2-methyl-phenyl)-N4-(tetrahydrofuran-2-ylmethyl)pyrimidine-2,4-diamine]	< 200
CC(C)=CCC/C(C)=C/CNc1cc(-c2cccc(Cl)c2C)nc(N)n1 [Example 708, 6-(3-chloro-2-methyl-phenyl)-N4-[(2E)-3,7-dimethylocta-2,6-dienyl]pyrimidine-2,4-diamine]	< 200
Cc1c(Cl)cccc1-c1cc(NCC(C)C)nc(N)n1 [Example 709, 6-(3-chloro-2-methyl-phenyl)-N4-isobutyl-pyrimidine-2,4-diamine]	< 200
Cc1c(Cl)cccc1-c1cc(NCCc2ccccc2)nc(N)n1 [Example 713, 6-(3-chloro-2-methyl-phenyl)-N4-(2-phenylethyl)pyrimidine-2,4-diamine]	< 200
Cc1c(Cl)cccc1-c1cc(NCCc2ccncc2)nc(N)n1 [Example 714, 6-(3-chloro-2-methyl-phenyl)-N4-[2-(4-pyridyl)ethyl]pyrimidine-2,4-diamine]	< 200
Cc1c(Cl)cccc1-c1cc(NCCc2ccccn2)nc(N)n1 [Example 715, 6-(3-chloro-2-methyl-phenyl)-N4-[2-(2-pyridyl)ethyl]pyrimidine-2,4-diamine]	< 200
Cc1c(Cl)cccc1-c1cc(NC/C(=C\F)CCc2ccc(F)cc2)nc(N)n1 [Example 721, 6-(3-chloro-2-methyl-phenyl)-N4-[(2Z)-2-(fluoromethylene)-4-(4-fluorophenyl)butyl]pyrimidine-2,4-diamine]	< 200
Cc1cc(C[S+]([O-])CCNc2cc(-c3cccc(Cl)c3C)nc(N)n2)no1 (centres unmarked) [Example 725, 6-(3-chloro-2-methyl-phenyl)-N4-[2-[(5-methylisoxazol-3-yl)methylsulfinyl]ethyl]pyrimidine-2,4-diamine]	2000 to 10000
Cc1c(Cl)cccc1-c1cc(NCCc2ccc(O)c(O)c2)nc(N)n1 [Example 727, 4-[2-[[2-amino-6-(3-chloro-2-methyl-phenyl)pyrimidin-4-yl]amino]ethyl]benzene-1,2-diol]	< 200
Cc1c(Cl)cccc1-c1cc(NCCc2cc(O)c(O)c(O)c2)nc(N)n1 [Example 728, 5-[2-[[2-amino-6-(3-chloro-2-methyl-phenyl)pyrimidin-4-yl]amino]ethyl]benzene-1,2,3-triol]	< 200
C=C(C)CNc1cc(-c2cccc(Cl)c2C)nc(N)n1 [Example 729, 6-(3-chloro-2-methyl-phenyl)-N4-(2-methylallyl)pyrimidine-2,4-diamine]	< 200
COC(=O)C1CCC(CNc2cc(-c3cccc(Cl)c3C)nc(N)n2)CC1 (centres unmarked) [Example 731, methyl 4-[[[2-amino-6-(3-chloro-2-methyl-phenyl)pyrimidin-4-yl]amino]methyl]cyclohexanecarboxylate]	< 200
Cc1c(Cl)cccc1-c1cc(NCCc2cccnc2)nc(N)n1 [Example 733, 6-(3-chloro-2-methyl-phenyl)-N4-[2-(3-pyridyl)ethyl]pyrimidine-2,4-diamine]	< 200
Cc1c(Cl)cccc1-c1cc(NCCc2cnccn2)nc(N)n1 [Example 735, 6-(3-chloro-2-methyl-phenyl)-N4-(2-pyrazin-2-ylethyl)pyrimidine-2,4-diamine]	< 200
Cc1c(Cl)cccc1-c1cc(NCCc2ccc(Br)cc2)nc(N)n1 [Example 736, N4-[2-(4-bromophenyl)ethyl]-6-(3-chloro-2-methylphenyl)pyrimidine-2,4-diamine]	< 200
Cc1c(Cl)cccc1-c1nc(N)nc2c1CCN2 [Example 742, 4-(3-chloro-2-methylphenyl)-5H,6H,7H-pyrrolo[2,3-d]pyrimidin-2-amine]	< 200
Cc1c(Cl)cccc1-c1nc(N)nc2c1C[C@@H](C)N2 [Example 743, (6R)-4-(3-Chloro-2-methylphenyl)-6-methyl-5H,6H,7H-pyrrolo[2,3-d]pyrimidin-2-amine]	< 200
Cc1c(Cl)cccc1-c1cc(NCCOc2ccc(Cl)cn2)nc(N)n1 [Example 746, 6-(3-chloro-2-methylphenyl)-N4-{2-[(5-chloropyridin-2-yl)oxy]ethyl}pyrimidine-2,4-diamine]	< 200
Cc1c(Cl)cccc1-c1cc(NCCOc2ccc(C#N)cc2)nc(N)n1 [Example 747, 4-(2-{[2-amino-6-(3-chloro-2-methylphenyl)pyrimidin-4-yl]amino}ethoxy)benzonitrile]	< 200

tested on: activated T-lymphocytes; assay: Cellular assay, primary T-lymphocytes activated with CD3/CD28 Dynabeads; type: cell-based, human; settings: not given
Method: as §1
as §2, with “Primary T-lymphocytes are isolated from donated human blood and thereafter activated with CD3/CD28 Dynabeads. The T-lymphocytes” for “The T-lymphocytes”

SMILES	effect on activated T-lymphocytes (FIG. 1)
Cc1c(Cl)cccc1-c1cc(NCCc2ccc(S(N)(=O)=O)cc2)nc(N)n1 [Example 297, 4-(2-{[2-amino-6-(3-chloro-2-methylphenyl)pyrimidin-4-yl]amino}ethyl)benzene-1-sulfonamide]	selectively kills
